Assays:
KYSE-450 = assay: Antiproliferative activity against human KYSE-450 cells assessed as reduction in cell growth incubated for 48 hrs by MTT assay; type: functional, cell-based; details: KYSE-450, 48 h
FaDu = assay: Antiproliferative activity against human FaDu cells assessed as inhibition of cell growth measured after 72 hrs by CCK-8 assay; type: functional, cell-based
KYSE-510 = assay: Antiproliferative activity against human KYSE-510 cells assessed as reduction in cell growth incubated for 48 hrs by MTT assay; type: functional, cell-based; details: KYSE-510, 48 h
KYSE-150 cell line = assay: Antiproliferative activity against human KYSE-150 cell line assessed as inhibition of cell growth incubated for 48 hrs by CCK-8 assay; type: functional, cell-based; details: KYSE-150, 48 h
TE-1 = assay: Antiproliferative activity against human TE-1 cells assessed as inhibition of cell growth by MTT assay; type: functional, cell-based
KYSE-140 = assay: Antiproliferative activity against human KYSE-140 cells assessed as inhibition of cell growth by MTT assay; type: functional, cell-based
ECa-109 cell line = assay: Antiproliferative activity against human EC109 cells assessed as reduction in cell viability measured after 48 hrs by CCK-8 method; type: functional, cell-based; details: ECa-109, 48 h
SAS = assay: Antiproliferative activity against human SAS cells assessed as reduction in cell viability by MTT assay; type: functional, cell-based
[1] = Antiproliferative activity against human HaCaT cells assessed as inhibition of cell growth incubated for 48 hrs by SRB assay; type: toxicity, cell-based
[2] = Antiproliferative activity against human HOC313 cells assessed as reduction in cell viability by MTT assay; type: functional, cell-based

## Cc1sc2c(c1C)C(c1ccc(Cl)cc1)=N[C@@H](CC(=O)OC(C)(C)C)c1nnc(C)n1-2
KYSE-450
  IC50: 124 nM
FaDu
  IC50: 9640 nM
KYSE-510
  IC50: 121 nM
KYSE-150 cell line
  IC50: 55400 nM
TE-1
  IC50: 3990 nM
KYSE-140
  IC50: 4160 nM
ECa-109 cell line
  IC50: 100 nM
SAS
  IC50: 169 nM
[1]
  IC50 at 48 h: 320 nM
[2]
  IC50: 288 nM
